# Reference: ChEMBL document CHEMBL1128291, “The C-32 triacetyl-L-rhamnose derivative of ascomycin: a potent, orally active macrolactone immunosuppressant” (J Med Chem, 1995)
# Assays:
# [1] = Drug plasma level in rat was determined on the last day of dosing at 1,2,4.8 and 24 hr and ED50 was evaluated; assay type: ADME, organism-based
# Rattus norvegicus [2] = assay: In vivo immunosuppressive activity was evaluated by surgically implanting the hearts from Brown Norway rats into the peritoneal cavity of histoincompatible Lewis rats and rejection was assessed; assay type: functional
# Rattus norvegicus [3] = assay: In vivo immunosuppressive activity was evaluated by inducing arthritis in lewis rats and measuring the primary lesions after 16 days; assay type: functional; conditions: 384 h
# Rattus norvegicus [4] = assay: In vivo immunosuppressive activity was evaluated by inducing arthritis in lewis rats and measuring the secondary lesions after 16 days; assay type: functional; conditions: 384 h
# Rattus norvegicus [5] = species on record: Rattus norvegicus; assay: Minimum neurotoxic dose from ED50(rat adjuvant arthritis); assay type: functional
# Rattus norvegicus [6] = species on record: Rattus norvegicus; assay: Minimum neurotoxic dose/Cmax was determined from ED50(rat adjuvant arthritis); assay type: functional
# [7] = Therapeutic index was determined from the ratio of MND to the ED50 Cmax.(rat adjuvant arthritis)
# T-cell [8] = assay: In vitro inhibitory activity against human T-cell production of lymphokine IL-2; assay type: functional, cell-based
# [9] = Therapeutic index is the plasma Cmax ratio of the minimum neurotoxic dose over the ED50 dose in rat adjuvant arthritis; conditions: read-out: TI
# T-cell [10] = assay: In vitro inhibitory activity against human T-cell proliferation.; assay type: functional, cell-based
Compound,Cmax [1] [ng/mL],ED100 (Rattus norvegicus [2]) [mg/kg],ED50 (Rattus norvegicus [3]) [mg/kg],ED50 (Rattus norvegicus [4]) [mg/kg],MND (Rattus norvegicus [5]) [mg/kg],MND Cmax (Rattus norvegicus [6]) [ng/mL],Therapeutic index [7],IC50 (T-cell [8]) [nM],selectivity ratio [9],IC50 (T-cell [10]) [nM]
C=CC[C@@H]1/C=C(\C)C[C@H](C)C[C@H](OC)[C@H]2O[C@@](O)(C(=O)C(=O)N3CCCC[C@H]3C(=O)O[C@H](/C(C)=C/[C@@H]3CC[C@@H](O)[C@H](OC)C3)[C@H](C)[C@@H](O)CC1=O)[C@H](C)C[C@@H]2OC [TACROLIMUS ANHYDROUS],24,3,1.9,0.6,12,52,2,0.9,~2,0.5
C/C=C/C[C@@H](C)[C@@H](O)[C@H]1C(=O)N[C@@H](CC)C(=O)N(C)CC(=O)N(C)[C@@H](CC(C)C)C(=O)N[C@@H](C(C)C)C(=O)N(C)[C@@H](CC(C)C)C(=O)N[C@@H](C)C(=O)N[C@H](C)C(=O)N(C)[C@@H](CC(C)C)C(=O)N(C)[C@@H](CC(C)C)C(=O)N(C)[C@@H](C(C)C)C(=O)N1C [CYCLOSPORINE],–,15,3.4,0.7,–,–,–,–,–,–
CC[C@@H]1/C=C(\C)C[C@H](C)C[C@H](OC)[C@H]2O[C@@](O)(C(=O)C(=O)N3CCCC[C@H]3C(=O)O[C@H](/C(C)=C/[C@@H]3CC[C@@H](OC4OC(C)C(OC(C)=O)C(OC(C)=O)C4OC(C)=O)[C@H](OC)C3)[C@H](C)[C@@H](O)CC1=O)[C@H](C)C[C@@H]2OC (stereo partly drawn),254,30,10,2.3,> 300,> 2910,> 10,11,> 10,10.4
